Activity calls are given as the source filed them. The calls are words filed in the database; no cut-off is given here.
Test system: Staphylococcus aureus
Test: Inhibition of Hla expression in methicillin-resistant Staphylococcus aureus ATCC 33591 at 16 uM by Western blot analysis
Format: functional, organism-based

For CC(C)C[C@H](NC(=O)[C@H](Cc1c[nH]c2ccccc12)NC(=O)c1cc(Cl)ccc1Cl)B(O)O, the inhibition was “Active”.
